From patent US20220204502A1, “CRYSTAL POLYMORPHISM OF PI3K INHIBITOR AND METHOD FOR PREPARING SAME” (BORYUNG PHARMACEUTICAL CO., LTD, priority 2019, published 2022)

Assays:
[1] = Pharmacokinetic (PK) test, oral capsule in beagle dog; type: in vivo; details: 100 mg oral, powder in capsule
Method: A pharmacokinetic (PK) experiment was performed on the crystal form I compound according to Example 8.
The powder of the crystal form I compound of Example 8 was filled into a capsule in an amount of 100 mg, and the capsule was orally administered to a beagle dog at 100 mg once a day, and then the biokinetics of the drug was confirmed.
Specifically, 100 mg of the crystal form I compound was orally administered to the beagle dog, and blood was collected at a predetermined time, so as to measure a concentration of (S)-4-((1-(4,8-dichloro-1-oxo-2-phenyl-1,2-dihydroisoquinoline-3-yl)ethyl)amino)pyrido[2,3-d]pyrimidine-5(8H)-one. With respect to pharmacokinetic parameters, the BA Calc 2007 program was used to calculate an area under the plasma concentration-time curve from dosing time to final plasma concentration quantification time t (AUCt), area under the plasma concentration-time curve from dosing time to infinite time (AUCi), peak plasma concentration (Cmax), time for maximum plasma concentration (Tmax), and terminal elimination half-life (t1/2). As a result, a significance between substances was confirmed by Student t-test (SPSS) at a 95% confidence interval, and the results thereof are shown in table 2 below.

[2] = Accelerated stability test (HPLC impurities, content, crystal form); type: physicochemical; details: for Crystal form / Content / Individual impurity / Total impurity: 4θ±2° C. and RH 75±5%; for Content / Individual impurity / Total impurity: wt %
Method: The powder of the crystal form I compound according to above Example 8 was doubly packed with an LDPE bag, then packed with a paperboard tube, and left alone at 4θ±2° C. and RH 75±5% for zero and six months, after which impurities were measured by using a high speed liquid chromatography under the following conditions.
<HPLC Conditions> • Detector: Ultraviolet absorption spectrophotometer (wavelength: 307 nm) • Column: Kromasil 100-5C18 (4.6×250 mm, […]) or a column similar thereto • Column temperature: 25° C. • Injection amount: 10 μl • Mobile phase: Mobile phase A—20 mmol/L of ammonium acetate buffer solution (pH 4.5, acetic acid), Mobile phase B—acetonitrile:methanol=8:2

[3] = Long-term stability test; type: physicochemical; details: for Content / Individual impurity / Total impurity / Crystal form: 25±2° C. and RH 6θ±5%; for Content / Individual impurity / Total impurity: capsule in PTP packing, wt %
Method: The powder of the crystal form I compound according to above Example 8 was doubly packed with an LDPE bag, then packed with a paperboard tube, and filled into a capsule, after which the capsule was subjected to PTP packing to carry out a long-term stability test (25±2° C. and RH 6θ±5%).

[4] = Stress stability test (temperature / humidity); type: physicochemical; details: for Content / Individual impurity / Total impurity: wt %
Method: The crystal form I prepared in above Example 8 was left alone under the stress conditions (temperature: 60° C., humidity: 40° C., RH75%) for 0, 7 and 14 days, after which impurities were measured by using high speed liquid chromatography.

[5] = Hygroscopicity (Dynamic Vapor Sorption, DVS) measurement; type: physicochemical; details: 25° C.; for hygroscopicity (overall assessment): DVS 0 to 95 % RH
Method: The hygroscopicity was tested by using the crystal form I of above Example 8.
i) Model name: DVS Intrinsic (Surface Measurement Systems LTD. UK)
ii) Humidity: Initial 0% maximum 95%
iii) Experiment time: 7 hours
After placing a certain amount (10 mg) of the crystal form I compound prepared in Example 8 on a sample pan in a sample chamber, nitrogen was flowed through a tube connected into the sample chamber for the first one hour so as to remove moisture in the chamber and moisture of the sample. Humidity in the chamber was controlled by controlling water vapor, and target relative humidity was increased step by step from initial 0% to 10% every 20 minutes, so as to measure a moisture content of crystal form I for 205 min. A mass of the sample was measured […] (from 0% RH to 95% RH) to collect data at 10% RH intervals, and a change in weight of the sample according to the increase and decrease of humidity was graphed.

[6] = stress: humidity (40° C., RH75%), 7 days
[7] = stress: humidity (40° C., RH75%), 14 days
[8] = stress: humidity (40° C., RH75%), zero day (initial)
[9] = stress: temperature (60° C.), 7 days
[10] = stress: temperature (60° C.), 14 days
[11] = stress: temperature (60° C.), zero day (initial)

bioavailability (in words) [1]: excellent bioavailability
concentration in blood (in words) [1]: high concentration in blood
AUC(0-inf) ([1]; plasma): 559 ng·h/mL
AUC(0-t) ([1]; plasma): 540 ng·h/mL
Cmax ([1]; plasma): 215 ng/mL
Tmax ([1]; plasma): 1.25 h
half-life ([1]; plasma): 1.56 h
Crystal form ([2]; six months): Form I
Content ([2]; six months): 99.7%
Individual impurity ([2]; six months): 0.02%
Total impurity ([2]; six months): 0.16%
Crystal form ([2]; zero month (initial)): Form I
Content ([2]; zero month (initial)): 100.0%
Individual impurity ([2]; zero month (initial)): 0.02%
Total impurity ([2]; zero month (initial)): 0.14%
Content ([3]; six months): 99.7%
Individual impurity ([3]; six months): 0.02%
Total impurity ([3]; six months): 0.15%
Content ([3]; zero month (initial)): 100.0%
Individual impurity ([3]; zero month (initial)): 0.02%
Total impurity ([3]; zero month (initial)): 0.14%
Crystal form ([3]; six months): Form I
Crystal form ([3]; zero month (initial)): Form I
Content [4, 6]: 99.6%
Individual impurity [4, 6]: 0.58%
Total impurity [4, 6]: 0.64%
Content [4, 7]: 100.8%
Individual impurity [4, 7]: 0.58%
Total impurity [4, 7]: 0.65%
Content [4, 8]: 99.1%
Individual impurity [4, 8]: 0.58%
Total impurity [4, 8]: 0.66%
Content [4, 9]: 100.0%
Individual impurity [4, 9]: 0.58%
Total impurity [4, 9]: 0.64%
Content [4, 10]: 99.7%
Individual impurity [4, 10]: 0.58%
Total impurity [4, 10]: 0.65%
Content [4, 11]: 99.1%
Individual impurity [4, 11]: 0.58%
Total impurity [4, 11]: 0.66%
hygroscopicity (overall assessment) [5]: non-hygroscopicity
hygroscopicity (overall assessment) ([5]; listed as crystal form I): remarkably excellent non-hygroscopicity
water (moisture) content by DVS ([5]; relative humidity 0.0 %): 0.01%
water (moisture) content by DVS ([5]; relative humidity 10.0 %): 0.06%
water (moisture) content by DVS ([5]; relative humidity 20.0 %): 0.11%
water (moisture) content by DVS ([5]; relative humidity 30.0 %): 0.16%
water (moisture) content by DVS ([5]; relative humidity 40.0 %): 0.2%
water (moisture) content by DVS ([5]; relative humidity 50.0 %): 0.24%
water (moisture) content by DVS ([5]; relative humidity 60.0 %): 0.28%
water (moisture) content by DVS ([5]; relative humidity 70.0 %): 0.33%
water (moisture) content by DVS ([5]; relative humidity 80.0 %): 0.38%
water (moisture) content by DVS ([5]; relative humidity 90.0 %): 0.46%
water (moisture) content by DVS ([5]; relative humidity 95.0 %): 0.54%
SMILES: C[C@H](Nc1ncnc2[nH]ccc(=O)c12)c1c(Cl)c2cccc(Cl)c2c(=O)n1-c1ccccc1 [Crystal form I, (S)-4-((1-(4,8-dichloro-1-oxo-2-phenyl-1,2-dihydroisoquinoline-3-yl)ethyl)amino)pyrido[2,3-d]pyrimidin-5(8H)-one]
change of impurities and content (in words) ([2]; accelerated conditions, six months): neither significant change nor change with time
change of impurities and content (in words) ([3]; long-term conditions, six months): neither significant change nor change with time
change of impurities and content (in words) ([4]; stress conditions, 0, 7 and 14 days): neither significant change nor change with time
